Consider two molecules from patent US20100330148A1, “MEHODS AND COMPOSITIONS FOR INHIBITING IMPDH-1 ISOFORM 1” (The Johns Hopkins University, priority 2006, published 2010).

The subject of series [1] is VEGF and bFGF stimulated angiogenesis (new blood vessel formation). As to the kind of experiment: Matrigel plug angiogenesis assay in mice. The settings on record: 60 mg/kg/day s.c., 10 days after plug implantation, vs vehicle, p<0.002. It counts as in vivo, mouse. The method, then:
In vivo angiogenesis. Female C57BL/6NCr 5-week old, 25-30 g mice were purchased from NCI and treated in accordance with Johns Hopkins ACUC procedures. In all animal experiments the MPA prodrug mycophenolate mofetil i.v. formulation (Roche) was used. Mice were pretreated with drug for three days and then implanted with 0.5 mL of Matrigel (BD Biosciences) containing 100 ng/mL VEGF and 150 ng/mL bFGF. Drug treatment was continued daily for 10 days, mice were sacrificed, and plugs were harvested, fixed in neutral buffered formalin, and processed for histology using MAS-trichrome staining. The entire Matrigel plug was photographed at 100× and erythrocyte-filled blood vessels were counted per field.
Matrigel plugs' containing VEGF and bFGF were subcutaneously implanted into mice. The control group was treated with saline vehicle and the MPA group was treated with 60 or 120 mg/kg/day of drug. […] To quantify these differences we counted erythrocyte-filled blood vessels per 100× field (FIG. 3E) (Fahmy, R. G., Dass, C. R., Sun, L. Q., Chesterman, C. N. & Khachigian, L. M. (2003) Nat. Med. 9, 1026-1032), and observed a 69% decrease in new blood vessel formation in mice treated with MPA in comparison with vehicle control (p<0.002). Thus, MPA is capable of inhibiting angiogenesis at a therapeutically achievable dose in vivo.

Series [2] relates to human umbilical vein endothelial cells (HUVEC). Kind of series: HUVEC proliferation, [3H]-thymidine incorporation. The series is classed as cell-based. The method, then:
(§1) Library construction. 32,000 FDA drug approvals obtained by Freedom of Information Act requests were condensed to 3,400 unique drug formulations. Drugs were purchased from Sigma, Spectrum Chemicals, MP Biomedicals, The Johns Hopkins Hospital pharmacy, Biomol, and Tocris. 10 mM stock solutions were made using DMSO, water, or ethanol as solvents. Drugs were arrayed in 96-well plates and screened at a final concentration of 10 μM. Cells were incubated with drug for 36 h and proliferation was measured by pulsing with 1 μCi [^3H]-thymidine for 8 h followed by absorption onto glass filters and scintillation counting.
(§2) Statistical analysis. IC50 measurements were carried out in triplicate, and analyzed using four parameter logarithmic analysis. Values are presented +/− the standard error of the mean. P-values were calculated using the Student's T-test. IC50 measurements are carried out using standard assays, and include assays described in Gilbert H J, Lowe C R, Drabble W T. Biochem J. 1979, 183:481-94; and Xiang, B., Taylor, J. C., and Markham, G. D. J. Biol. Chem., 271, 1435 (1996); the contents of which are incorporated herein by reference.
A library of 1,850 FDA-approved drugs and 600 drugs that entered the clinic via approval in a foreign country or phase II clinical trials was created. […]
(Uptake of a labelled nucleoside into DNA is a usual measure of proliferation.)

Series [3] deals with RENCA cells. Kind of series: Murine renal cell carcinoma (RENCA) tumor model. The settings on record: mice. The series is classed as in vivo, mouse. The method, then:
Renal cell tumor model. Female BALB/C5-6 week old, 25-30 g mice were purchased from NCI. Logarithmically growing RENCA cells (5×10^5) in 50 μL 50% PBS, 50% Matrigel were injected into the renal subcapsule through an incision in the left flank (Drevs, J., Hofmann, I., Hugenschmidt, H., Wittig, C., Madjar, H., Muller, M., Wood, J., Martiny-Baron, G., Unger, C. & Marme, D. (2000) Cancer Res. 60, 4819-4824.). The mice were sacrificed 3.5 weeks after surgery and the primary tumors were dissected and fixed for immunohistochemistry. For CD31 analysis eight fields with the highest level of angiogenesis were selected per tumor for quantification using ImagePro Plus software (Media Cybernetics), and represented as mean percentage area occupied by CD31 positive blood vessels.
Angiogenesis has been implicated in tumor growth among a number of other diseases. Although MPA inhibits fast-growing tumor cell lines in culture and in mouse xenograph experiments (Tressler, R. J., Garvin, L. J. & Slate, D. L. (1994) Int. J. Cancer 57, 568-573, Carter, S. B., Franklin, T. J., Jones, D. F., Leonard, B. J., Mills, S. D., Turner, R. W. & Turner, W. B. (1969) Nature 223, 848-850), it is unclear whether MPA also affects tumor-associated angiogenesis. We determined the efficacy of MPA in inhibiting tumor-associated angiogenesis in a murine renal cell carcinoma (RENCA) model (Salup, R. R. & Wiltrout, R. H. (1986) Cancer Res. 46, 3358-3363). MPA inhibited the growth of the primary tumor in a dose-dependent fashion, causing a 34% and 27% decrease in volume and weight, respectively, at 60 mg/kg/day and a 64% decrease in both volume and weight at 120 mg/kg/day (p<0.001) (FIG. 4A). The decrease in tumor growth caused by MPA at 120 mg/kg/day was accompanied by a 48% decrease in the area of CD31 positive staining blood vessels per 200× field (p<0.001).

Series [4] deals with Jurkat T cells. Kind of series: Jurkat T-cell proliferation, [3H]-thymidine incorporation. It counts as cell-based. The method, then:
as §1, §2
MPA is an immunosuppressive drug widely used to prevent rejection of transplanted organs (Lipsky, J. J: (1996) Lancet 348, 1357-1359.). The mechanism of action in the immune system is well established—MPA inhibits de novo biosynthesis of purines in T and B lymphocytes (Allison, A. C. & Eugui, E. M. (2000) Immunopharmacology 47, 85-118.). […] Thus, a comparison of HUVEC to Jurkat T cells for sensitivity to MPA in the presence and absence of guanine was carried out. […] Addition of guanine at or above 20 μM rendered Jurkat T cells resistant to MPA. Similar to Jurkat T cells, inhibition of HUVEC proliferation is also reversed by guanine in a dose-dependent manner (FIG. 1B). Unlike Jurkat T cells, however, HUVECs are less sensitive to guanine, the cause of which remains unknown. Similar reversal of MPA inhibition is also seen in HUVEC and Jurkat T-cells with the addition of exogenous guanosine and deoxyguanosine (data not shown).

Series [5] deals with HUVEC. Kind of series: Cell cycle analysis of HUVEC. The series is classed as cell-based, human. The source says: It has been shown that MPA causes cell cycle arrest in activated T and B lymphocytes at G1 (Laliberte, J., Yee, A., Xiong, Y. & Mitchell, B. S. (1998) Blood 91, 2896-2904.). Therefore, the effect of MPA on endothelial cell cycle progression was examined.
For series [6] the following is noted: human renal transplant patients, chronic oral treatment; cited from earlier work.
The conditions of series [7]: small cohorts of cancer patients (<35), diethanolamine salt; cited from earlier work.

Values joined by “and” are separate entries in the source; they are usually repeats but may differ in a detail not shown here. Equal entries are not always repeated.

Broadly, the IC50 is the concentration that inhibits the measured activity by half. For `COc1c(C)c2c(c(O)c1C/C=C(\C)CCC(=O)O)C(=O)OC2` [MPA, mycophenolic acid], the “decrease in new blood vessel formation (erythrocyte-filled blood vessels per 100× field)” value in series [1] came to 69%. The IC50 turned out to be 99.2 nM in series [2] (Homo sapiens, HUVEC, [3H]-thymidine incorporation, +/- standard error of the mean) and 128 nM in series [4] (Homo sapiens, Jurkat, [3H]-thymidine incorporation, +/- standard error of the mean). Moreover, in series [2] (guanine 10 μM and 20 μM), the “MPA inhibition of HUVEC proliferation with exogenous guanine” value is listed as “partially reversed”. For the same molecule, the “decrease in primary tumor volume” value in series [3] (60 mg/kg/day) worked out at 34%; in series [3] (120 mg/kg/day, p<0.001), 64%. Besides, the “decrease in primary tumor weight” value is listed as 27% in series [3] (60 mg/kg/day) and 64% in series [3] (120 mg/kg/day, p<0.001). The “decrease in area of CD31 positive staining blood vessels per 200× field” value in series [3] (120 mg/kg/day, p<0.001, 120 mg/kg/day) is 49% and 48%. Further, the “MPA inhibition of Jurkat T-cell proliferation with exogenous guanine” value is “unaffected” in series [4] (guanine 10 μM); “completely reversed” in series [4] (guanine 20 μM and 50 μM). In addition, in series [5] (1 μM MPA), the cell cycle effect result is given as “G1/S cell cycle arrest”. For the same molecule, the “population of cells in S phase” value in series [5] (1 μM MPA (control 12%)) is 6.5%. Besides, in series [5] (1 μM MPA (control 17.8%)), the “population of cells in G2/M phase” value was 12.4%. The “population of cells in G1 phase” value in series [5] (1 μM MPA (control 71%)) worked out at 81%. In series [5] (1 μM MPA + 50 μM guanosine), the “cell cycle effect of MPA after addition of guanosine” value is recorded as “completely reversed”. In series [6], the half life was 18 h. Further, in series [6], the peak plasma level was 75 µM.

As to `COc1c(C)c2c(c(O)c1CC=C(C)CCC(=O)O)C(=O)OC2.OCCNCCO` [diethanolamine salt of MPA], the toxicity in patients entry in series [7] is on record as “considerable dose-limiting gastrointestinal toxicity”.
